{"source": "paper PMC9289467", "about": "“A Novel Multifunctional 5,6-Dimethoxy-Indanone-Chalcone-Carbamate Hybrids Alleviates Cognitive Decline in Alzheimer’s Disease by Dual Inhibition of Acetylcholinesterase and Inflammation” (Frontiers in Aging Neuroscience, 2022)", "key": {"recognition memory": {"test_system": "recognition memory", "experiment": "Novel object recognition task", "assay_type": "in vivo, APP/PS1 mice", "procedure": "(§1) APP/PS1 mice of ages 6 months were randomly divided into vehicle (APP/PS1, n = 10) and treatment groups (AP5, n = 10), which were intragastrically administered with AP5 (40 mg/kg) once daily for consecutive 5 months. AP5 was dissolved in distilled water containing 1% sodium carboxymethyl cellulose.\n(§2) To investigate whether AP5 treatment plays a key role in cognition improvement of APP/PS1 mice models, the five different behavioral tests were sequentially carried out in the following order: open field, novel object recognition task, spatial object-location task, Y-maze, and Morris water maze (MWM). AP5 was also administered daily during the test periods. […]\nTo study the kinetics of Aβ-AChE fibril complex formation, 10 μM Aβ was mixed with AChE (R005282, Roche, Basel, Switzerland) and different concentrations AP5 and incubated with 10 μM ThT and 50 mM glycine-NaOH (pH 8.5) at 37°C, the ThT fluorescence was continually measured for 24 h at 30 min intervals. […] Fluorescence emission at485 nm was measured on a Spectra MAX GeminiXS fluorometerat an excitation wavelength of 450 nm. […]\nTo assess locomotor activity, mice were individually tested in an open-field box (38 cm × 38 cm × 25 cm). The movement of the mouse was tracked for 5 min with open fieldvideo analysis system, and the total move distances was automatically recorded as adirect measure of locomotor activity. […]"}, "[1]": {"test_system": "spatial recognition memory", "experiment": "Y-maze", "assay_type": "in vivo", "conditions": "after training for 3 h, relative to APP/PS1 mice", "procedure": "as §1, §2\nFor the spatial object location task (an object moved to a new location), mice first explored the two objects placed in two corners of the open field for 5 min in training period. After 1 h or 24 h, the mice received a 5 min retention trial with a new spatial configuration with an object moved from one corner to the opposite corner of the open field.The discrimination index was calculated and defined as: (time spent exploring the displaced object-time spent exploring nondisplaced objects) / total exploration time for the two objects during the 5 min retention trial. […]\nguided to platform and allowed to stay on it for 30 s. The time (escape latency) for each mouse to find the way and reach the target platform was analyzed. […]"}, "Aβ42 oligomers": {"target": "T1, Aβ42 oligomers (Homo sapiens, UniProt P05067)", "T1 construct": "purchased Aladdin A118755", "T1 sequence (P05067 672-713 limits assumed)": "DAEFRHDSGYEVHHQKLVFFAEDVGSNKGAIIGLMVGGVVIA", "experiment": "Aβ42 self-oligomerization dot blot (A11 antibody)", "assay_type": "biochemical", "conditions": "oligomer-specific antibody A11", "procedure": "(§3) The formation of Aβ40 or Aβ42 oligomers was monitored by dot blot with oligomer-specific antibody. Briefly, the resulting Aβ film was dissolved in ddH2O to form a 100 μM solution, and then the oligomerization reaction ([Kayed et al., 2003]) was initiated in absence or presence of different concentrations of AP5. An aliquot (2 μL) of each solution was dripped on a nitrocellulose membrane. The membrane was blocked with 5% non-fat milk in TBS for 1 h, incubated with the anti-β amyloid (MOAB-2, NBP2-13075SS, Novus Biologicals, Colorado, United States), anti-amyloid oligomers (A11, NBP1-97930, Novus Biologicals), or anti-amyloid fibrils (OC, NBP1-97930, Novus Biologicals) antibodies overnight at 4°C. The membrane was then incubated using HRP-conjugated secondary antibodies at room temperature for 1 h and then developed with ECL."}, "[2]": {"test_system": "hippocampal gene expression", "experiment": "Bulk RNA-seq of hippocampal tissues", "assay_type": "in vivo, APP/PS1 mice", "procedure": "as §1\nHippocampal specimens from WT, APP/PS1, and AP5 mice stored in dry ice were sent to Beijing Genomics Institute (Wuhan, China), and the total RNA was extracted for RNA sequencing on BGISEQ-500 system. Moreover, the differentially expressed genes between APP/PS1 and AP5 were analyzed after RNA sequencing."}, "Aβ40 oligomers": {"target": "T2, Aβ40 oligomers (Homo sapiens, UniProt P05067)", "T2 construct": "purchased Invitrogen 03-136", "T2 sequence (P05067 672-711 limits assumed)": "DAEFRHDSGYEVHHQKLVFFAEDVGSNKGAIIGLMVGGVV", "experiment": "Aβ40 self-oligomerization dot blot (A11 antibody)", "assay_type": "biochemical", "conditions": "oligomer-specific antibody A11", "procedure": "as §3"}, "[3]": {"test_system": "spatial learning and memory", "experiment": "Morris water maze", "assay_type": "in vivo, APP/PS1 mice", "conditions": "after 5 months of treatment", "procedure": "as §1\nas §2, with “periods. A set of video analysis systems (TopScan, CleverSys, United States) was used throughout the behavioral tests.” for “periods.”\nthe familiar object) / total exploration time for the novel and familiar object.\nFor the spatial object location task (an object moved to a new location), mice first explored the two objects placed in two corners of the open field for 5 min in training period. After 1 h or 24 h, the mice received a 5 min retention trial with a new spatial configuration with an object moved from one corner to the opposite corner of the open field.The discrimination index was calculated and defined as: (time spent exploring the displaced object-time spent exploring nondisplaced objects) / total exploration time for the two objects during the 5 min retention trial.\nWork on spatial recognition memory was tested by Y-maze. The symmetrical Y-maze consisted of three arms joined in the middle to form a Y shape. […] The ratio between the distance spent in the novel arm and the totaldistance travelled in the maze was quantified as preference index. […]\nguided to platform and allowed to stay on it for 30 s. The time (escape latency) for each mouse to find the way and reach the target platform was analyzed. […] The parameters measured during the probe trialincluded number of platform crossing and time spent in the target quadrant. […]"}}, "data": [{"smiles": "CCN(C)C(=O)Oc1cccc(/C=C2\\Cc3cc(OC)c(OC)cc3C2=O)c1", "note": "[AP5, (E)-3-((5,6-dimethoxy-1-oxo-1,3-dihydro-2H-inden-2-ylidene)-methyl)phenylethyl(methyl)carbamate]", "values": [{"measurement": "discrimination index, novel object recognition", "setting": "recognition memory; at 1 h, vs APP/PS1 mice", "result": "significantly higher"}, {"measurement": "discrimination index, novel object recognition", "setting": "recognition memory; at 24 h, vs APP/PS1 mice without treatment", "result": "significantly better"}, {"measurement": "preference index", "setting": "[1]", "result": "marked elevation"}, {"measurement": "levels of oligomeric Aβ42", "setting": "Aβ42 oligomers", "result": "decreased the levels"}, {"measurement": "expression of genes linked to pan-reactive and A1 astrocytes", "setting": "[2]; hippocampus RNA-seq", "result": "reduced the expression of most genes"}, {"measurement": "expression of signature genes of A2-specific astrocytes", "setting": "[2]; hippocampus RNA-seq, among groups", "result": "No differences"}, {"measurement": "DAM gene expression", "setting": "[2]; hippocampus, AP5-treated vs untreated APP/PS1 mice", "result": "increase in DAM gene expression"}, {"measurement": "levels of oligomeric Aβ40", "setting": "Aβ40 oligomers", "result": "decreased the levels"}, {"measurement": "platform crossing number", "setting": "[3]; MWM probe trial", "result": "performed much better"}, {"measurement": "time spent in the target quadrant", "setting": "[3]; MWM probe trial", "result": "performed much better"}, {"measurement": "escape latency", "setting": "[3]; MWM", "result": "performed much better"}]}]}
